In this assay the test system is rabbit patellar tendon specimen. The experiment in a line: post-denaturation tension test (stiffness) of heat-contracted tendon specimens treated with cross-linking agent. The settings on record: FIG. 7; for stiffness increase when compared to a control without the cross-linking: then 0.1% glutaraldehyde for 15 minutes. Set-up: species or system New Zealand rabbit. On the procedure:
The achieve the above objectives, the present invention provides an in vitro testing system for developing procedures for treating joint instability problems and loose skin problems. In particular, the testing system performs a tensile test, which is a test wherein a constant rate of elongation is applied on the specimen and the resultant load is measured by a load cell; a viscoelasticity test, which is a test to determine the viscoelastic properties of the specimen; and, calculates stiffness which is the slope of elongation versus load graph. The testing system 110 is illustrated in FIG. 4 and consists of a hydrothermy cabin 120 that is attached to a universal testing machine 130, which is used to perform isothermal and isotonic heating of specimens. The hydrothermy cabin 120 provides a chamber which allows fluid to be circulated around all surfaces of specimen 123 held in between lower grip 124 and upper grip 125. Specimen 123 is secured to lower grip 124 using a fixture which is designed to keep specimen 123 at an angle to mimic anatomical loading while compensating for the offset created by the angle so as to ensure a straight line of loading. Specimen 123 is secured to upper grip 125 by a wedge-shaped fixture which is composed of two universal joints to give rotational freedom to specimen 123 to ensure that a purely uniaxial stress is created on specimen 123. The denaturation of the collagen in specimen 123 is produced by providing to hydrothermy cabin 120 high temperature saline solution 150 contained in reservoir 151 by means of high temperature saline solution supply line 152. […] The materials testing machine 130 performs a tensile test wherein a constant rate of eleongation is applied to specimen 123 and the resultant load is measured by a load cell (not shown); a viscoelasticity test wherein a constant load is applied on specimen 123 and the resultant elongation as a function of time is measured (creep test) or a constant elongation is imposed and the resulting load is measured (stress relaxation test) as a function of time. […]

For `O=CCCCC=O` [glutaraldehyde], the “stiffness of the specimen” value (15 minutes of 0.1% glutaraldehyde following heat treatment of either 75° C. or 80° C.) is recorded as “increased”. Also, the “stiffness increase when compared to a control without the cross-linking” value (heat treatment 75° C., 0.5 MPa load) was “more than 220%” and the “stiffness increase when compared to a control without the cross-linking” value (heat treatment 80° C., 0.6 MPa load) is recorded as “more than 130%”.

Source of the values: US6375672B1, “Method for controlling the chemical and heat induced responses of collagenous materials” (Board of Trustees of Michigan State University, priority 1999, dated 2002).
